{"source": "paper PMC10266417", "about": "“LeishIF3d is a non-canonical cap-binding protein in Leishmania” (Frontiers in Molecular Biosciences, 2023)", "key": {"LeishIF3d": {"target": "T1, LeishIF3d (Leishmania mexicana, UniProt E9B178)", "T1 construct": "gene LMXM_29_3040; full ORF (1596 bp); recombinant His-tagged from E. coli BL21 (pET52, Ni-NTA); mutants C-terminally SBP-tagged, expressed episomally in L. mexicana", "T1 sequence (E9B178 1-531)": "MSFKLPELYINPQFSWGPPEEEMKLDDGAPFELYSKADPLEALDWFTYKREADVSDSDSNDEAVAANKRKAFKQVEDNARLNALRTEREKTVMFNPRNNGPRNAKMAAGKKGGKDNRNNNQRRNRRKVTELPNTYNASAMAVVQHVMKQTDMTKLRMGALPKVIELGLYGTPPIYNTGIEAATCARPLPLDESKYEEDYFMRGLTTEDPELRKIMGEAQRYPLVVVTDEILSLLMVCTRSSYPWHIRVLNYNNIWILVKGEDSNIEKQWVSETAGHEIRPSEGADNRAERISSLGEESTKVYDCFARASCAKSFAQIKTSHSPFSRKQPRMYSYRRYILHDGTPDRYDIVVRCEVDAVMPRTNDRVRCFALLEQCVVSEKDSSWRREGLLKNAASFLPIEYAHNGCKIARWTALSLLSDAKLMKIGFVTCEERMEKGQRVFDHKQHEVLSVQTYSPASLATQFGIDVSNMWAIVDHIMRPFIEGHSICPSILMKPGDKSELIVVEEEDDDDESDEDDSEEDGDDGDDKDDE", "assay": "m7GTP-agarose affinity binding of purified His-tagged protein, elution with free m7GTP, anti-His western blot", "conditions": "m7GTP immobilised on agarose; eluted with free m7GTP"}, "LeishIF4E1": {"target": "T2, LeishIF4E1 (Leishmania mexicana, UniProt E9AZ65)", "T2 construct": "gene LMXM_27_1620; endogenous untagged protein in L. mexicana promastigote extract, detected with specific antibodies", "T2 sequence (E9AZ65 1-213)": "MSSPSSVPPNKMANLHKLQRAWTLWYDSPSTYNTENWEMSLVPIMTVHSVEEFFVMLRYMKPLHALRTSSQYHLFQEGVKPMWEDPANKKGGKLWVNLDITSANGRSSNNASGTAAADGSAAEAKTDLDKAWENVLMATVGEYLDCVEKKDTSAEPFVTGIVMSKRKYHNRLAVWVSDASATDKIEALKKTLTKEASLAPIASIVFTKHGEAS", "assay": "m7GTP-agarose affinity pull-down, western blot with LeishIF4E1-specific antibodies", "type": "biochemical", "conditions": "L. mexicana extract; m7GTP immobilised on agarose; 20 mM HEPES pH 7.4, 50 mM NaCl; 100 uM GTP wash, 200 uM m7GTP elution; positive control"}}}
{"compound": "C[n+]1cn([C@@H]2O[C@H](COP(=O)(O)OP(=O)(O)OP(=O)(O)O)[C@@H](O)[C@H]2O)c2nc(N)[nH]c(=O)c21", "note": "[m^7GTP]", "values": [{"measurement": "m7GTP-agarose affinity binding of purified His-tagged protein, elution with free", "setting": "LeishIF3d", "result": "direct binding of recombinant His-tagged LeishIF3d to m^7GTP"}, {"measurement": "m7GTP-agarose affinity pull-down, western blot with LeishIF4E1-specific antibodi", "setting": "LeishIF4E1", "result": "LeishIF3d could bind m^7GTP, as did the positive control of LeishIF4E1"}]}
